Results on three compounds are retold here after the NIST ThermoML archive (doi:10.1016/j.jct.2008.09.012).

Each structure is given as a SMILES string. Numbers after ± are expanded uncertainties.

The data set is described as follows: molar enthalpy of vaporization or sublimation. To be noted: 298.15 K; Liquid; Calvet microcalorimetry.
With `COc1ccc(F)cc1` [1-fluoro-4-methoxybenzene], the molar enthalpy turned out to be 11.6 ± 0.526 kcal/mol.
The result for `COc1ccccc1F` [2-fluoroanisole] reads 12.5 ± 0.526 kcal/mol.
The result for `COc1cccc(F)c1` [3-fluoroanisole] reads 11.5 ± 0.526 kcal/mol.
